Assay results as given in US20090318357A1, “Molecules Preferentially Associated with Effector T Cells or Regulatory T Cells and Methods of Their Use” (Tolerx, Inc., priority 2002, published 2009).

Tests used:
Format in all cases: cell-based, human
[1] = system: anti-CD3/anti-CD28 stimulated PBLs; assay: Transcription factor (FOXP3, Tbox21, GATA3) mRNA expression by Real-Time PCR in activated PBL
Procedure: This example describes the effect of TGFβ1 on the expression levels of Tbox 21, GATA3 and FOXP3 expression in anti-CD3/anti-CD28 stimulated PBLs. Real-time PCR was used to quantitate the levels of transcription factor mRNA in the presence and absence of TGFβ1.
PBL were stimulated for 72 hours with anti-CD3/anti-CD28 in the presence or absence of TGFβ1 and total RNA was extracted using a QiganRNeasy Mini Kit according to manufacturer's instructions. RNA was stored at minus 80° C.
cDNA was prepared from RNA using the Applied Biosystems High-Capacity cDNA Archive Kit according to manufacturer's instructions.
One μg cDNA was amplified using Applied Biosystems Assays-on-Demand™ Gene Expression products (i.e., TaqMan Universal PCR Mastermix and Assay-on-Demand solution, including marker specific primers) according to the following protocol, in accordance with manufacturer's instructions. Probe/primer reagents for FOXP3, GATA3 and Tbox21 were obtained from Applied Biosystems via the Assay on Demand program.
For the QPCR reaction, 2.5 μl Assay on Demand reagent (Applied Biosystems) were added to 25 μl TaqMan Master Mix™ and samples brought to a total volume of 50 μl with RNAse-free water. PCR reactions were run under the following conditions: 50° C. for 1 minute, 95° C. for 10 minutes and 40 cycles of 95° C. for 15 seconds followed by 60° C. for 1 minute. 18 sRNA or β-actin was run with every assay as a control; 2.5 μl of primer/probe mix, 25 μl of TaqMan MasterMix™, 22.5 μl RNAse-free water. Reactants were detected using an Applied Biosystems QPCR instrument (i.e., ABI Program 7000 SDS Sequence Detection System). The relative expression of the transcription factors for both TGFβ1-treated and untreated stimulated PBLs was determined. Relative expression was calculated assuming that the levels of transcription factor mRNA in stimulated PBL in the absence of added cytokines was 100%. […]

[2] = system: TGFβ1-derived Treg cells; assay: Cytokine production in TGFβ1-derived Treg cells (Searchlight ELISA); conditions: percent of untreated control, 7-12 days
Source text: (§1) Differentiated cell lines were produced from cells prepared from human cord blood or peripheral blood CD4+CD45RA+ naïve T cells by a variety of methods, including flow cytometry and magnetic bead separations. Purity of the starting populations was >95%. Cells were then stimulated by CD3 and CD28 antibodies in RPMI 1640 with 10% FCS and 1% Human AB serum with defined mixtures of cytokines and neutralizing antibodies to cytokines to produce the differentiated cell types. Th1 cells were produced by culture with IL12 (62 U/ml) and anti-IL4 (0.2 ug/ml); Th2 cells were produced by culture in IL4(145 U/ml) and anti-IL12 (10 ug/ml) and anti-IFNγ (10 ug/ml); and regulatory T cells were produced by culture in TGFβ (32 U/ml), IL9 (42 U/ml), anti-IL4 (10 ug/ml) and anti-IL12 (10 ug/ml) and anti-IFNγ (10 ug/ml). (Note: anti-IL12 was not used in all experiments). All cultures were supplemented with IL2 (65 U/ml) and IL15 (4500 U/ml). Cells were split into larger culture dishes as warranted by cell division. At the conclusion of one round of cell differentiation (7-12 days), cells were harvested for preparation of total RNA for use in the gene chip experiments.
(§2) Differentiated cells were prepared as described in Example 1. Varying concentrations (0.1 μM, 1.0 μM and 10 μM) of Thioperamide was added at the time of plating. At the conclusion of one round of cell differentiation (7-12 days), cells were assayed for the production of the cytokines, IL-2, IL-4, IL-5, IL-10, IL-12-p70, IL-13, IFN-γ, TNF-alpha, and TGFβ1, by Searchlight™ technology, a chemiluminescent enzyme-linked immunoabsorbant assay (ELISA) according to the manufacturer's instructions, commercially available from Pierce Biotechnology.
(§3) Data are plotted as a percent of control (untreated) assuming that the levels of cytokine production in stimulated differentiated cells in the absence of Thioperamide is 100%.
(§4) Differentiated cells were prepared as described in Example 1. Varying concentrations (1.0 μM, 10.0 μM and 100 μM) of Serotonin was added at the time of plating. At the conclusion of one round of cell differentiation (7-12 days), cells were assayed for the production of the cytokines, IL-2, IL-4, IL-5, IL-10, IL-12-p70, IL-13, IFN-γ, TNFα, and TGFβ1, by ELISA as described in Example 5.
(§5) Data are plotted as a percent of control (untreated) assuming that the levels of cytokine production in stimulated PBL in the absence of Serotonin is 100%.
as §4, with “(0.1” for “(1.0”, “1.0” for “10.0”, “10.0” for “100”, “Rolipram or Zardaverine” for “Serotonin”
(§6) The results of the effect of Rolipram on the production of cytokines is shown in FIGS. 11A, 11B, and 11C, and the results of the effect of Zardaverine on the production of cytokines is shown in FIGS. 12A, 12B, and 12C. Data are plotted as a percent of control (untreated) assuming that the levels of cytokine production in stimulated PBL in the absence of rolipram or zardaverine is 100%.

[3] = system: TGFβ1-derived Treg cells; assay: Proliferation of TGFβ1-derived Treg cells (cell count); conditions: cells counted; for proliferation of TGFβ1-derived Treg cells: re-stimulated with anti-CD3 and anti-CD28, three days, vs untreated cells
Source text: as §1
(§7) Differentiated cell types were prepared as described in Example 1 then cultured in the presence of anti-CD3 and anti-CD28 for seven days. Cells were subsequently re-stimulated with anti-CD3 and anti-CD28, with the addition of Serotonin at 1, 10 and 100 μM, for three days at which time the cells were counted and the data were plotted as a percent of control (untreated cells).
as §7, with “anti-CD28 (as described in Example 7),” for “anti-CD28,”, “either Rolipram or Zardaverine” for “Serotonin”, “0.1 μM, 1.0 μM and” for “1,”, “μM” for “and 100 μM,”

[4] = system: Th2 cells; assay: Cytokine production in differentiated Th2 cells (Searchlight ELISA); conditions: percent of untreated control, 7-12 days
Source text: as §1, §2, §3, §4, §5
as §4, with “(0.1” for “(1.0”, “1.0” for “10.0”, “10.0” for “100”, “Rolipram or Zardaverine” for “Serotonin”
as §6

[5] = system: Th2 cells; assay: Proliferation of differentiated Th2 cells (cell count); conditions: cells counted
Source text: (§8) Differentiated cell lines were produced from cells prepared from human cord blood or peripheral blood CD4+CD45RA+ naïve T cells by a variety of methods, including flow cytometry and magnetic bead separations. Purity of the starting populations was >95%. Cells were then stimulated by CD3 and CD28 antibodies in RPMI 1640 with 10% FCS and 1% Human AB serum with defined mixtures of cytokines and neutralizing antibodies to cytokines to produce the differentiated cell types. […]
as §7
as §7, with “anti-CD28 (as described in Example 7),” for “anti-CD28,”, “either Rolipram or Zardaverine” for “Serotonin”, “0.1 μM, 1.0 μM and” for “1,”, “μM” for “and 100 μM,”

[6] = system: Th1 cells; assay: Proliferation of differentiated Th1 cells (cell count); conditions: re-stimulated with anti-CD3 and anti-CD28, three days, cells counted; vs untreated cells
Source text: as §8, §7
as §7, with “anti-CD28 (as described in Example 7),” for “anti-CD28,”, “either Rolipram or Zardaverine” for “Serotonin”, “0.1 μM, 1.0 μM and” for “1,”, “μM” for “and 100 μM,”

[7] = system: Th1 cells; assay: Cytokine production in differentiated Th1 cells (Searchlight ELISA); conditions: percent of untreated control, 7-12 days
Source text: as §1, §2, §3, §4, §5
as §4, with “(0.1” for “(1.0”, “1.0” for “10.0”, “10.0” for “100”, “Rolipram or Zardaverine” for “Serotonin”
as §6

[8] = mRNA, among the concentrations tested
[9] = mRNA, over the concentrations tested, control = 100%
[10] = PBL stimulated 72 hours with anti-CD3/anti-CD28, mRNA, FIG. 1

Compound	FOXP3 expression relative to control [1, 9]	GATA3 expression relative to control [1, 9]	Tbox21 expression relative to control [1, 9]	production of IFN-gamma [2]	production of IL-2 [2]	production of TGFβ1 [2]	proliferation of TGFβ1-derived Treg cells [3]	production of IL-4 [4]	production of IL-5 [4]	production of IL-10 [4]	production of IL-13 [4]	proliferation of Th1 cells [6]	production of IFN-gamma [7]	production of IL-10 [7]	production of TNF-alpha [7]	further results
NCCc1c[nH]c2ccc(O)cc12 [Serotonin]	increase	increase	increase	significantly reduced	significantly reduced	significantly reduced	no proliferative effect	significantly reduced	significantly reduced	no effect	significantly reduced	no proliferative effect	significantly reduced	significantly reduced	significantly reduced	concentration of maximal GATA3 induction [1, 8]: 10.0 µM; concentration of maximal Tbox 21 induction [1, 8]: 1.0 µM; increase of proliferation of Th2 cells compared to untreated control cells ([5]; at each concentration tested (1, 10 and 100 μM), three days): 50%; production of IL-2 [7]: significantly reduced; production of IL-12 [7]: significantly reduced
COc1ccc(C2CNC(=O)C2)cc1OC1CCCC1 (stereo not drawn) [Rolipram]	increased expression	increased expression	neither of these inhibitors had more than a modest effect			significantly increased	reduce	significantly increased	significantly increased		significantly increased	reduce		significantly reduced		proliferation of TGFβ1-derived Treg cells compared with Th1 and Th2 cells ([3]; 0.1, 1.0 and 10 μM, three days): may have been more strongly affected; proliferation of Th2 cells ([5]; re-stimulated with anti-CD3 and anti-CD28, three days, vs untreated cells): reduce
CC(C)Oc1ccc2c(=O)c3cc(C(=O)O)ccc3oc2c1 [AH6809]	trend toward increasing	unchanged														Tbox21 expression relative to untreated control ([1]; at 0.1 μM): increased; Tbox21 expression relative to untreated control ([1]; at 10 μM): decreased; concentration of maximal FOXP3 expression [1, 8]: 0.1 µM
TGFβ1: Transforming growth factor, beta 1; secreted protein added to stimulated PBL																FOXP3 expression relative to an untreated control [1, 10]: approximately 2.5 fold; GATA3 expression relative to an untreated control [1, 10]: approximately 2 fold
S=C(NC1CCCCC1)N1CCC(c2cnc[nH]2)CC1 [Thioperamide]			relatively unchanged	significantly increased	significantly increased	significantly increased		significantly increased	significantly increased	significantly reduced	significantly increased		significantly induce		significantly induce	FOXP3 expression relative to control ([1]; at 10 μM): moderate increase; GATA3 expression relative to control ([1]; at 10 μM): moderate increase; production of IL-4 [2]: significantly reduced; production of IL-10 [2]: significantly increased; production of IL-13 [7]: significantly reducing
